From patent US20240293367A1, “METHODS OF TREATING DISORDERS WITH A […]” (Cybin IRL Limited, priority 2023, published 2024)

Tested on: participants with MDD
Experiment: MADRS total score, response, remission and relapse in MDD participants (Phase I/IIa study)
Type: in vivo, human
From the text: Cohorts 1, 4, 5, and 6 of the study was comprised of participants with MDD. Cohorts 2, 3, and the relative BA cohort of the study were comprised of normal healthy volunteers (NHV). […] MDD participants had been on a stable dose of antidepressant medication for at least one month prior to screening with an inadequate response to that antidepressant medication as judged by the Investigator, and continued to receive their prescribed antidepressant throughout the course of the study.
Cohorts 4 and 5. For Cohorts 4 and 5, 12 participants each (24 participants total) were randomized in a 3:1 ratio to receive 12 mg of psilocin-d10 or matched placebo in a single dosing session on Day 1. Following a 21-day interval, all participants received a dose of 12 mg psilocin-d10 on Day 22 (second dose for participants originally randomized to psilocin-d10, first dose for participants randomized to placebo), and were followed to Day 42.
Cohort 6. For Cohort 6, 12 participants were randomized in a 3:1 ratio to receive 16 mg of psilocin-d10 or matched placebo in a single dosing session on Day 1. Following a 21-day interval, all participants received a dose of 16 mg psilocin-d10 on Day 22 (second dose for participants originally randomized to psilocin-d10, first dose for participants randomized to placebo), and were followed to Day 42. Given the availability of data and considering that the secondary endpoint was a change in baseline to Day 21 in MADRS, efficacy data presented herein considers the data cut off of Day 21 postdose. One participant had to be withdrawn from the study due to pregnancy.
The primary efficacy endpoint defined in the statistical analysis plan (SAP) is the change from baseline to Day 21 of the total Montgomery-Åsberg Depression Rating Scale (MADRS) score compared to placebo, therefore efficacy data presented herein considers the data cut off of Day 21 postdose. Mean total score and change from baseline on Montgomery-Åsberg Depression Rating Scale (MADRS) on days 1, 10, 17, 22, 31, 38, and 42 are presented as secondary efficacy endpoints.
The secondary objective of the study was to evaluate the efficacy of psilocin-d10 in treating symptoms of MDD as measured by the change from baseline to Day 21 of the MADRS total score in the Intent-to-Treat population, with data analyzed according to the treatment group each participant was randomized to receive. Data from participants in Cohorts 4, 5, and 6 randomized to placebo was pooled for analysis purposes (N=9). Data from participants in Cohorts 4, 5, and 6 randomized to 12 mg or 16 mg psilocin-d10 (N=27) was also pooled for analysis.
Data from the study was also analyzed according to dosage level of psilocin-d10. Data from participants in Cohorts 4, 5, and 6 randomized to placebo was pooled for analysis purposes (N=9). Data from participants in Cohorts 4 and 5 (treated with 12 mg psilocin-d10) was also pooled for analysis (N=18).
The rates of remission, response, and relapse were also evaluated within the study. […] Additionally, 20.8% (5 out of 24) of participants in the psilocin-do group (12 mg and 16 mg combined) were in remission (remitters) (defined as a MADRS score of ≤10) compared to 0% for placebo at Day 21. The same 5 participants who were in remission were also classified as responders. None of the participants relapsed at Day 21 compared to baseline.
The MADRS is a 10-item scale with ratings based on a clinical interview which moves from broadly phrased questions about symptoms to more detailed ones allowing a precise rating of severity. A rating scale from 0 to 6 is employed and the rater must decide whether the rating lies on defined scale steps (0, 2, 4, 6) or between them (1, 3, 5). The MADRS can be used for any time interval between ratings, be it weekly or otherwise, and the time interval should be recorded. […]

[1] = Day 21, 12 mg single dose, Cohorts 4 and 5
[2] = Day 21, 16 mg single dose, Cohort 6
[3] = Day 21, single dose, 12 and 16 mg pooled

## [2H]C([2H])([2H])N(C([2H])([2H])[2H])C([2H])([2H])C([2H])([2H])c1c[nH]c2cccc(O)c12 [psilocin-d10, 3-(2-(bis(methyl-d3)amino)ethyl-1,1,2,2-d4)-1H-indol-4-ol]
10 days post first dose, 12 mg and 16 mg pooled
  mean reduction in baseline MADRS: 55%
10 days post second dose
  reduction in baseline MADRS: 66%
ANOVA [2], Placebo/active group (one dose Day 22)
  MADRS change from baseline, LS Mean (Std Err) for Day 42: −16.48 (3.50)
ANOVA [2], two doses, 12 and 16 mg pooled
  MADRS change from baseline, LS Mean (Std Err) for Day 42: −21.04 (2.24)
ANOVA [3], within Placebo/active group
  MADRS change from baseline, LS Mean (Std Err) for Day 42: −16.54 (2.89)
ANOVA at Day 21, 12 mg
  MADRS change from baseline, LS Mean: −16.70
ANOVA at Day 21, 16 mg
  MADRS change from baseline, LS Mean: −15.61
ANOVA at Day 42 (by dosage level), Placebo/active group (one dose Day 22)
  MADRS change from baseline, LS Mean: −16.48
ANOVA at Day 42, two 12 mg doses
  MADRS change from baseline, LS Mean: −19.83
ANOVA at Day 42, two 16 mg doses
  MADRS change from baseline, LS Mean: −23.41
ANOVA, 12 and 16 mg pooled
  MADRS change from baseline, LS Mean (Std Err) for Day 21: −16.33 (1.30)
Day 10 after single dose (baseline 32.2)
  MADRS mean total score: 17.7
Day 21, 12 mg (3 out of 15)
  participants in remission: 20%
Day 21, 12 mg (8 out of 15)
  participants with response: 53.3%
Day 21, 12 mg and 16 mg combined (5 out of 24)
  participants in remission (MADRS ≤10): 20.8%
Day 21, 12 mg and 16 mg combined (12 out of 24)
  participants with response (≥50% reduction from baseline MADRS): 50%
[1]
  MADRS total score, Change from Baseline, Mean: −17.0
  MADRS total score, Change from Baseline, Median: −17.0
  MADRS total score, Observed, Mean: 15.9
  MADRS total score, Observed, Median: 14.0
Day 21, 16 mg (2 out of 9)
  participants in remission: 22.2%
Day 21, 16 mg (4 out of 9)
  participants with response: 44.4%
[2]
  MADRS total score, Change from Baseline, Mean: −14.9
  MADRS total score, Change from Baseline, Median: −17.0
  MADRS total score, Observed, Mean: 16.6
  MADRS total score, Observed, Median: 18.0
Day 21, Cohort 4, 12 mg
  Relapse - No: 7 (100.0) n (%)
  Relapse - Yes: 0 (0.0) n (%)
  Remission (MADRS ≤10) - Yes: 2 (28.6) n (%)
  Remission - No: 5 (71.4) n (%)
  Response (≥50% reduction from baseline MADRS) - Yes: 4 (57.1) n (%)
  Response - No: 3 (42.9) n (%)
Day 21, Cohort 5, 12 mg
  Relapse - No: 8 (100.0) n (%)
  Relapse - Yes: 0 (0.0) n (%)
  Remission (MADRS ≤10) - Yes: 1 (12.5) n (%)
  Remission - No: 7 (87.5) n (%)
  Response (≥50% reduction from baseline MADRS) - Yes: 4 (50.0) n (%)
  Response - No: 4 (50.0) n (%)
Day 21, Cohort 6, 16 mg
  Relapse - No: 9 (100.0) n (%)
  Relapse - Yes: 0 (0.0) n (%)
  Remission (MADRS ≤10) - Yes: 2 (22.2) n (%)
  Remission - No: 7 (77.8) n (%)
  Response (≥50% reduction from baseline MADRS) - Yes: 4 (44.4) n (%)
  Response - No: 5 (55.6) n (%)
Day 21, Cohorts 4, 5 and 6, pooled 12 mg and 16 mg
  Remission (MADRS ≤10) - Yes: 5 (20.8) n (%)
Day 21, Cohorts 4 and 5, 12 mg
  Relapse - No: 15 (100.0) n (%)
  Relapse - Yes: 0 (0.0) n (%)
  Remission (MADRS ≤10) - Yes: 3 (20.0) n (%)
  Remission - No: 12 (80.0) n (%)
  Response (≥50% reduction from baseline MADRS) - Yes: 8 (53.3) n (%)
  Response - No: 7 (46.7) n (%)
Day 21, pooled 12 mg and 16 mg
  Relapse - No: 24 (100.0) n (%)
  Relapse - Yes: 0 (0.0) n (%)
  Remission - No: 19 (79.2) n (%)
  Response (≥50% reduction from baseline MADRS) - Yes: 12 (50.0) n (%)
  Response - No: 12 (50.0) n (%)
[3]
  MADRS total score, Change from Baseline, Mean: −16.2
  MADRS total score, Change from Baseline, Median: −17.0
  MADRS total score, Observed, Mean: 16.1
  MADRS total score, Observed, Median: 16.5
Day 21, 95% CI (−12.2, 10.1), P 0.8421
  MADRS, Difference in LS Means, 12 mg compared to Cohort 6 (16 mg): −1.09
Day 21, 95% CI (−20.5, −7.7), P 0.0001
  MADRS, Difference in LS Means, 12 mg compared to placebo: −14.11
Day 21, 95% CI (−22.3, −3.7), P 0.0080
  MADRS, Difference in LS Means, 16 mg compared to placebo: −12.99
Day 21 after single dose
  mean decrease from baseline MADRS: 50%
Day 31 (10 days post second dose)
  MADRS mean total score: 6.7
Day 42, Cohort 4, two 12 mg doses
  Relapse - No: 7 (100.0) n (%)
